{"source": "patent US9833002B2", "about": "“Biocide compositions” (Ecolab USA Inc., priority 2013, dated 2017)", "key": {"[1]": {"tested_on": "biofilm (sessile organisms) on 1018 carbon steel biostuds", "assay": "Dynamic flow loop test, sessile kill study and biofilm regrowth", "type": "cell-based", "conditions": "within 24 hours", "description": "(§1) Evaluation of the biocide compositions disclosed herein was performed through a dynamic flow loop test where both planktonic and sessile organisms could be monitored. To start this testing, fluid from the field, as well as cultured organisms from the field, were placed into the system and allowed to grow for approximately 7 weeks, providing a mature biofilm that can then be challenged by the biocide treatment.\n(§2) The test system holds approximately 1.5 liters of fluid that are continually circulated over 1018 carbon steel biostuds located in the 6 o'clock position of a modified Robbin's device. The device holds a maximum of eight biostuds in the 6 o'clock position. The production fluid was pumped through the system at a rate of approximately 3.1 gallons per minute, which allows for deposition of microorganisms and solids onto the biostuds. The health of the microbial population was monitored weekly during the biofilm growth period using ATP quantification.\n(§3) After concluding the establishment of a mature biofilm, the sessile kill study was initiated. […] A baseline reading was taken, during all of the studies, prior to the addition of the chemical to the individual flow loop. […]\nThe initial data point before treatment is set to 100% and all other readings are reported as a percent change compared to the baseline. […]"}, "planktonic organisms": {"tested_on": "planktonic organisms", "assay": "Dynamic flow loop test, planktonic kill after 4 hour contact time", "type": "cell-based", "conditions": "112.5 ppm active THPS", "description": "as §1, §2, §3\nPlanktonic kill in the dynamic flow loops was also evaluated immediately after a 4 hour contact time with the biocide."}}}
{"substance": "tetrakis(hydroxymethyl)phosphonium sulphate [THPS]", "values": [{"measurement": "Biofilm size after treatment compared to before treatment", "setting": "[1]", "result": "larger than it was before treatment"}, {"measurement": "Planktonic kill, % reduction", "setting": "planktonic organisms", "result": 81.8, "unit": "%"}]}
